The text below walks through data of patent US12486267B2, “Imidazo[1,2-A]pyridine and [1,2,4]triazolo[1,5-A]pyridine derivatives as TLR9 inhibitors for the treatment of fibrosis” (BRISTOL-MYERS SQUIBB COMPANY, priority 2020, dated 2025).

What all share (type): cell-based
Experiment [1] addresses T1, human TLR8 (Homo sapiens, UniProt Q9NR97).
T1 sequence (Q9NR97 27-1041): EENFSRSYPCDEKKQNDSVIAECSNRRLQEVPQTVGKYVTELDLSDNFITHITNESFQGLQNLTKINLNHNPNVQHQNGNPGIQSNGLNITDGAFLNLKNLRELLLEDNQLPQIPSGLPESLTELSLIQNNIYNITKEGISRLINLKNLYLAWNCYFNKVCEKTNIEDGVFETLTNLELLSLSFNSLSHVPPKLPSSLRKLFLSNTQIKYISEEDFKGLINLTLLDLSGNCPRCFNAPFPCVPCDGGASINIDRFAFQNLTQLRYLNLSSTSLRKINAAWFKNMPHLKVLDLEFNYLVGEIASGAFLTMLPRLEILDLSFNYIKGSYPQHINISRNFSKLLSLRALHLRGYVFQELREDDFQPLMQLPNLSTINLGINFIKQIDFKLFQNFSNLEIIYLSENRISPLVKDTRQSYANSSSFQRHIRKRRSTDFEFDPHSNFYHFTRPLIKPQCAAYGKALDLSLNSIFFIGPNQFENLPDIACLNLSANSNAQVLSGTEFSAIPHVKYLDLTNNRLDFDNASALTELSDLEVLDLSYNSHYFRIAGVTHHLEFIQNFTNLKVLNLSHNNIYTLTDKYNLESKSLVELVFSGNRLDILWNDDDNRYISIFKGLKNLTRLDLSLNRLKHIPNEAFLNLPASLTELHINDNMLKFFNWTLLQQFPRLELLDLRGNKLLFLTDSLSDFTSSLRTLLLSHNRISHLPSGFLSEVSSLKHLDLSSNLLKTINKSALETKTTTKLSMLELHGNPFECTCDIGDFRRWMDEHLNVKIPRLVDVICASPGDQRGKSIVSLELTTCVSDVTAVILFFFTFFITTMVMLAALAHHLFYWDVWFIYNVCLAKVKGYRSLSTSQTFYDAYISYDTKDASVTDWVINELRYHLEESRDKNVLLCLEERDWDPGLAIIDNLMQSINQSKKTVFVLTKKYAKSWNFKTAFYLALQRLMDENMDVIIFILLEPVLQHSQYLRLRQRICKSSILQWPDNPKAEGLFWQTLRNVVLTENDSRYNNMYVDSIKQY
The experiment is described as follows: TLR8 inhibition reporter assay (HEK-Blue cells, SEAP reporter). To be noted: HEK-Blue cells overexpressing human TLR8; stimulated with R848 15.9 μM; 22 hour incubation; SEAP readout. As to the method:
TLR7/8/9 Inhibition Reporter Assays
HEK-Blue™-cells (Invivogen) overexpressing human TLR7, TLR8 or TLR9 receptors were used for screening inhibitors of these receptors using an inducible SEAP (secreted embryonic alkaline phosphatase) reporter gene under the control of the […] minimal promoter fused to five NF-κB and AP-1-binding sites. Briefly, cells are seeded into Greiner 384 well plates (15000 cells per well for TLR7, 20,000 for TLR8 and 25,000 for TLR9) and then treated with test compounds in DMSO to yield a final dose response concentration range of 0.05 nM-50 μM. After a 30 minute compound pre-treatment at room temperature, the cells are then stimulated with a TLR7 ligand (gardiquimod at a final concentration of 7.5 μM), TLR8 ligand (R848 at a final concentration of 15.9 μM) or TLR9 ligand (ODN2006 at a final concentration of 5 nM) to activate NF-κB and AP-1 which induce the production of SEAP. After a 22 hour incubation at 37° C., 5% CO2, SEAP levels are determined with the addition of HEK-Blue™ Detection reagent (Invivogen), a cell culture medium that allows for detection of SEAP, according to manufacturer's specifications. The percent inhibition is determined as the % reduction in the HEK-Blue signal present in wells treated with agonist plus DMSO alone compared to wells treated with a known inhibitor.

For experiment [2], the target named is T2, human TLR9 (Homo sapiens, UniProt Q9NR96).
T2 sequence (Q9NR96 26-1032): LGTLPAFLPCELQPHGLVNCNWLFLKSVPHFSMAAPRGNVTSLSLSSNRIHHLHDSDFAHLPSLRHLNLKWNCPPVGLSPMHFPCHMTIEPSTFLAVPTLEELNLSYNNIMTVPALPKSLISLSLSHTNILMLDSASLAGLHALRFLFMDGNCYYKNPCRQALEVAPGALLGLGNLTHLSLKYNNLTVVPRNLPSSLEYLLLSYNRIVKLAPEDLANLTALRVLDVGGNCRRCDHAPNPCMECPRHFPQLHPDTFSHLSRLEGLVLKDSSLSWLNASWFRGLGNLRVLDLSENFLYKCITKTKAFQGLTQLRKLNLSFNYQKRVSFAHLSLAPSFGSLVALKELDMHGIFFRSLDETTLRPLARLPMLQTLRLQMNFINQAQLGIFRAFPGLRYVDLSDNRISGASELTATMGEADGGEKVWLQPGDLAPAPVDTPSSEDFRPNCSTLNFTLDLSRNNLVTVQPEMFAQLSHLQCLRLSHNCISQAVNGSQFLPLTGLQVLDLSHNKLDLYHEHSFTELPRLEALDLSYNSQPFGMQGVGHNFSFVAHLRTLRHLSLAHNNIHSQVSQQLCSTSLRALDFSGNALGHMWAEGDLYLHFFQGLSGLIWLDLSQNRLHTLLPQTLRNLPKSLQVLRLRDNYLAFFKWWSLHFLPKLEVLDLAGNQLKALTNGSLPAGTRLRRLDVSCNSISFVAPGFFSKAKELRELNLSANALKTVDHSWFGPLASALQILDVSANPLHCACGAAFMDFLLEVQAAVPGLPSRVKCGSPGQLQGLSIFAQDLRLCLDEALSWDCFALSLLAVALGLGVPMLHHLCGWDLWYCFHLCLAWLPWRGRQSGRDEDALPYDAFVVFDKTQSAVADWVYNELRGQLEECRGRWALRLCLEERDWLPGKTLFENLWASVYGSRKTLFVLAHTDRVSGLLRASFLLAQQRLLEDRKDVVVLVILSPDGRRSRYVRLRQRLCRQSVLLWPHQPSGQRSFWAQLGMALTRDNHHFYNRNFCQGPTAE
Nature of the experiment: TLR9 inhibition reporter assay (HEK-Blue cells, SEAP reporter). Conditions: HEK-Blue cells overexpressing human TLR9; stimulated with ODN2006 5 nM; 22 hour incubation; SEAP readout. A digest of the protocol: (§1)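 HEK-Blue cells with NF-κB/AP-1-driven SEAP pre-treated 30 min with compound (0.05 nM–50 μM), then stimulated with gardiquimod 7.5 μM (TLR7), R848 15.9 μM (TLR8) or ODN2006 5 nM (TLR9). SEAP detected after 22 h at 37 °C; percent inhibition relative to agonist-plus-DMSO and known-inhibitor wells.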
(In general: In a reporter assay the amount or activity of a reporter protein is the signal.)

In experiment [3] the target is T3, human TLR7 (Homo sapiens, UniProt Q9NYK1).
T3 sequence (Q9NYK1 27-1049): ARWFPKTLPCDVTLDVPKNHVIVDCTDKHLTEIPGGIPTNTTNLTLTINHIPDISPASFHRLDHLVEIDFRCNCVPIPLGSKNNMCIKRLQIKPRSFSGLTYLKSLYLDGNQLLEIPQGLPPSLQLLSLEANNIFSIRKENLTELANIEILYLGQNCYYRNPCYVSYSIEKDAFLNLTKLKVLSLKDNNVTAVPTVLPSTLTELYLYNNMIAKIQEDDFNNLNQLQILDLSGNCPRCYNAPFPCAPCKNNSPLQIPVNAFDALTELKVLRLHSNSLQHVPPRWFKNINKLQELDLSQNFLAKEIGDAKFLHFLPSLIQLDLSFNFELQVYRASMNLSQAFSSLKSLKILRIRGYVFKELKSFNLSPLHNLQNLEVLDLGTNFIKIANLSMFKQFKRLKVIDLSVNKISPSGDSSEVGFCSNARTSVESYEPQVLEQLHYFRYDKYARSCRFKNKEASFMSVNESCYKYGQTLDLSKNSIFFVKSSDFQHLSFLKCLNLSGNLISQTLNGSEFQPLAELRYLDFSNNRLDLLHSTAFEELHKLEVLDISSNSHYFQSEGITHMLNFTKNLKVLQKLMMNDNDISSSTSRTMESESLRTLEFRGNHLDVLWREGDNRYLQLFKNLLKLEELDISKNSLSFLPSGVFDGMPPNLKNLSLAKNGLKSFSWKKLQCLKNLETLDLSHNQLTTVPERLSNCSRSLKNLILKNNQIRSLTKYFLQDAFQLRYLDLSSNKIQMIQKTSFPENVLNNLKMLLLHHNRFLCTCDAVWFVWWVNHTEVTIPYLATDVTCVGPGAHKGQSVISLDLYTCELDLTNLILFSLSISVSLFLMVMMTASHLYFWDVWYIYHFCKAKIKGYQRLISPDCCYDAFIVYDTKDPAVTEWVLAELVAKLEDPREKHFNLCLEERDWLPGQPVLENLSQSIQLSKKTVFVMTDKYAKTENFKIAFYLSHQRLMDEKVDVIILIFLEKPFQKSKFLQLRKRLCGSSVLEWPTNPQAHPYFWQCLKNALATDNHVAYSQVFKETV
Nature of the experiment: TLR7 inhibition reporter assay (HEK-Blue cells, SEAP reporter). Conditions: HEK-Blue cells overexpressing human TLR7; stimulated with gardiquimod 7.5 μM; 22 hour incubation; SEAP readout. A digest of the protocol:
as §1

For orientation: IC50 means the concentration that inhibits the measured activity by half. Read a high IC50 as lower potency. With `COc1ccc(-c2cn3cc(C4CCN(C5CC6CCC(C5)N6C(C)C)CC4)cc(C)c3n2)cc1OC` (single isomer, unassigned) [Example 23, 2-(3,4-dimethoxyphenyl)-6-(1-(8-isopropyl-8-azabicyclo[3.2.1]octan-3-yl)piperidin-4-yl)-8-methylimidazo[1,2-a]pyridine], the figures for the IC50 in experiment [1], in experiment [2] and in experiment [3] were more than 50 µM, 0.242 µM and 31 µM, respectively.
For `COc1ccc(-c2cn3cc(C4CC5CCC(C4)N5C4CCN(C5CC5)CC4)cc(C)c3n2)cc1OC` (single isomer, unassigned) [Example 25, 6-(8-(1-cyclopropylpiperidin-4-yl)-8-azabicyclo[3.2.1]octan-3-yl)-2-(3,4-dimethoxyphenyl)-8-methylimidazo[1,2-a]pyridine], in that order: 20 µM, 0.016 µM and 3.5 µM.
For `COc1ccc(-c2cn3cc(C4CC5CCC(C4)N5C4CCN(C5CC5)CC4)cc(C)c3n2)cc1OC` (single isomer, unassigned) [Example 26, 6-(8-(1-cyclopropylpiperidin-4-yl)-8-azabicyclo[3.2.1]octan-3-yl)-2-(3,4-dimethoxyphenyl)-8-methylimidazo[1,2-a]pyridine], in that order: more than 50 µM, 0.086 µM and 2 µM.
For `COc1ccc(-c2cn3c(n2)CCC(C2CCN(C4CCN(CC(C)C)CC4)CC2)C3)cc1OC` (single isomer, unassigned) [Example 32, 2-(3,4-dimethoxyphenyl)-6-(1′-isobutyl-[1,4′-bipiperidin]-4-yl)-5,6,7,8-tetrahydroimidazo[1,2-a]pyridine], in that order: more than 50 µM, 0.038 µM and 2.8 µM.
Regarding `COc1ccc(-c2cn3c(n2)CCC(C2CCN(C4CCN(CC(C)C)CC4)CC2)C3)cc1OC` (single isomer, unassigned) [Example 33, 2-(3,4-dimethoxyphenyl)-6-(1′-isobutyl-[1,4′-bipiperidin]-4-yl)-5,6,7,8-tetrahydroimidazo[1,2-a]pyridine], the IC50 in experiment [1] was more than 50 µM; in experiment [2], 0.056 µM; in experiment [3], 3.1 µM.
For `COc1ccc(-c2cn3c(n2)CCC(C2CCN(C4CCN(C(C)C)CC4)CC2)C3)cc1OC` (single isomer, unassigned) [Example 35, 2-(3,4-dimethoxyphenyl)-6-(1′-isopropyl-[1,4′-bipiperidin]-4-yl)-5,6,7,8-tetrahydroimidazo[1,2-a]pyridine], in that order: more than 50 µM, 0.042 µM and 13 µM.
On the same counts, the results for `COc1ccc(-c2cn3c(n2)CCC(C2CCN(C4CCN(C(C)C)CC4)CC2)C3)cc1OC` (single isomer, unassigned) [Example 36, 2-(3,4-dimethoxyphenyl)-6-(1′-isopropyl-[1,4′-bipiperidin]-4-yl)-5,6,7,8-tetrahydroimidazo[1,2-a]pyridine] are more than 50 µM, 0.057 µM and 7.8 µM.
Turning to `COc1ccc(-c2cn3c(n2)CCC(C2CCN(C4CCN(C5CC5)CC4)CC2)C3)cc1OC` (single isomer, unassigned) [Example 37, 6-(1′-cyclopropyl-[1,4′-bipiperidin]-4-yl)-2-(3,4-dimethoxyphenyl)-5,6,7,8-tetrahydroimidazo[1,2-a]pyridine], the values for the IC50 in experiment [1], in experiment [2] and in experiment [3] were more than 50 µM, 0.062 µM and 4 µM, respectively.
Regarding `COc1ccc(-c2cn3c(n2)CCC(C2CCN(C4CCN(C5CC5)CC4)CC2)C3)cc1OC` (single isomer, unassigned) [Example 38, 6-(1′-cyclopropyl-[1,4′-bipiperidin]-4-yl)-2-(3,4-dimethoxyphenyl)-5,6,7,8-tetrahydroimidazo[1,2-a]pyridine], the IC50 in experiment [1] is more than 50 µM; in experiment [2], 0.045 µM; in experiment [3], 6 µM.
